Data: patent publication US20060140888A1, “Whitening agent containing crystalline molecular complex of hydroquinone and surfactant” (priority 2002, published 2006)
Where two headings read alike, the source gives them in different places.

Legend:
[1] = Storage stability (outer appearance change) of ointments containing molecular complex crystals; assay type: physicochemical; conditions: hydrophilic ointment containing 5%, 2 weeks in air at room temperature
Source text: Storage Sstability (Outer Appearance Change) of Ointments Prepared by Combining Different Surfactant/Hydroquinone Molecular Complex Crystals with Ointment Bases (Simple Ointment, Hydrophilic Ointment)

[2] = cited from earlier work
back of a person = assay: Visual observation test for skin reaction (patch test); assay type: in vivo, human; conditions: for skin reaction (visual): patch test, kneaded with white vaseline
Description: A simple surfactant and surfactant/hydroquinone molecular complex crystals were kneaded with white vaseline, and used for a patch test with a patch tester (Torii Yakuhin) on the back of a person. Skin reactions such as eruption, redness, edema or papules were visually noted 48 hours after applying each patch. Skin reactions were also confirmed after 72 hours. The samples used for the patch test were as follows (where the percentage values indicate the proportions of the surfactant or molecular complex crystals).

outer appearance (coloration) of hydrophilic ointment [1] | overall evaluation of patch test (back of a person; after 48 hours) | overall evaluation of patch test (back of a person; after 72 hours) | skin reaction (visual) (back of a person; after 72 hours) | Structure (SMILES) | solubility ([2]; in benzene) | solubility ([2]; in ether) | solubility ([2]; in ethyl acetate) | solubility ([2]; in methanol) | solubility ([2]; in water) | skin reaction (visual) (back of a person; after 48 hours)
Brown spots were confirmed | – | – | – | Oc1ccc(O)cc1 [simple hydroquinone, 1,4-benzenediol] | poorly soluble | readily soluble | poorly soluble | readily soluble | soluble | –
– | negative | negative | Some redness remained in the center area | CCCCCCCCCCCCCCCC[N+](C)(C)Cc1ccccc1.[Cl-] [No. 7, hexadecyldimethylbenzylammonium chloride] | – | – | – | – | – | some redness was found at the center area
